# Laboratory results published in publication PMC3264873 (Pharmaceutical Research, 2011).
# Where “and” joins values, the source holds several entries; their conditions need not be identical. Equal entries are not always repeated. Where two headings read alike, the source gives them in different places.
# Tests used:
# OATP1B1 [1] = target: T1, OATP1B1 (Homo sapiens, UniProt Q9Y6L6); test: Screening for inhibition of OATP1B1-mediated estradiol-17β-glucuronide uptake; conditions: for Classification as OATP1B1 inhibitor (more than 50% inhibition of E17βG uptake): 20 μM test compound
# T1 sequence (Q9Y6L6 1-691): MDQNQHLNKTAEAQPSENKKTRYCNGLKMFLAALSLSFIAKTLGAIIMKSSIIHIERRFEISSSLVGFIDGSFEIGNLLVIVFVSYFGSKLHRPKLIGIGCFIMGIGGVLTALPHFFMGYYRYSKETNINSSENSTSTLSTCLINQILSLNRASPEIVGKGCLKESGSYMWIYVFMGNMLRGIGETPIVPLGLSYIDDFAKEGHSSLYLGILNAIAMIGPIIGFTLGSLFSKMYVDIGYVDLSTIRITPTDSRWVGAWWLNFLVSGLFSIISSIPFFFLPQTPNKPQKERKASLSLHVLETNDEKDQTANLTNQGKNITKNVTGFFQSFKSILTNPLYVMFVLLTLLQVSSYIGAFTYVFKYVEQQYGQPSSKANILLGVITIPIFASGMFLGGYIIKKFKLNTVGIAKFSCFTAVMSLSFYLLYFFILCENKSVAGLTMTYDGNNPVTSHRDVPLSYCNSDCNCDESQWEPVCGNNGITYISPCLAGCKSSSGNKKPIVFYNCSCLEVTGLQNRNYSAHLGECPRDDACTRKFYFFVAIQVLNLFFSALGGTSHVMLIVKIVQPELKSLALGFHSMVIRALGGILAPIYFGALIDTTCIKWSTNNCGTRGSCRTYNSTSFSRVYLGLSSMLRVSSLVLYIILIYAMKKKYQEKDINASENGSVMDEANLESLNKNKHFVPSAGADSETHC
# OATP1B1 [2] = target: T1, OATP1B1; test: Calculation of R-values; conditions: for R-value E: ka = 0.03, Fa published value (lopinavir Fa = 1); for Range of the eight R-values A–H: all eight calculation variants; for Average (mean) R-value: mean of the eight R-values A–H
# [3] = cited from earlier work; for Imax, maximum systemic plasma concentration of the inhibitor: amprenavir recalculated from fosamprenavir data, ref [23]–[28]; for Fa, fraction of the inhibitor dose absorbed (maximum oral bioavailability): ref [23]–[25]
# OATP1B1 [4] = target: T1, OATP1B1; test: Concentration-dependent inhibition of OATP1B1-mediated atorvastatin uptake; format: cell-based
# OATP1B1 [5] = target: T1, OATP1B1; test: Michaelis-Menten uptake kinetics in HEK293 cells stably expressing OATP1B1; format: cell-based
# [6] = clinical co-administration with the inhibitor; ref [37],[27],[43],[51],[46]; cited from earlier work
# [7] = ref [3],[23],[24]; cited from earlier work
# OATP1B1 [8] = target: T1, OATP1B1; conditions: IC50 from another study and cell system; ref [3]; cited from earlier work
# [9] = Eq. 2 (IC50), ka = 0.03, Fa = 1, International Transporter Consortium method
# [10] = Eq. 2 (IC50), ka = 0.1, Fa published value (lopinavir Fa = 1)
# [11] = Eq. 3 (Ki), ka = 0.1, Fa = 1, Hirano et al. method
# [12] = Eq. 3 (Ki), ka = 0.1, Fa published value (lopinavir Fa = 1)
smiles,measurement,setting,value
CC(=O)Oc1ccc2c(c1)Oc1cc(OC(C)=O)ccc1C21OC(=O)c2cc(C(=O)O)ccc21 [5-CFDA],Classification as OATP1B1 inhibitor (more than 50% inhibition of E17βG uptake),OATP1B1 [1],inhibitors
Nc1ncnc2c1ncn2CCOCP(=O)(O)O [Adefovir],Classification as OATP1B1 inhibitor (more than 50% inhibition of E17βG uptake),OATP1B1 [1],inhibitors
CC(C)CN(C[C@@H](O)[C@H](Cc1ccccc1)NC(=O)O[C@H]1CCOC1)S(=O)(=O)c1ccc(N)cc1 [Amprenavir],R-value B,OATP1B1 [2]; [9],1.21
same,R-value D,"OATP1B1 [2]; Eq. 2 (IC50), ka = 0.1, Fa = 1",1.54
same,R-value C,OATP1B1 [2]; [10],1.49
same,R-value F,"OATP1B1 [2]; Eq. 3 (Ki), ka = 0.03, Fa = 1",1.37
same,R-value E,OATP1B1 [2]; Eq. 3 (Ki),1.34
same,R-value H,OATP1B1 [2]; [11],1.95
same,R-value G,OATP1B1 [2]; [12],1.87
same,Range of the eight R-values A–H,OATP1B1 [2],1.19–1.95 and < 2
same,Average (mean) R-value,OATP1B1 [2],1.49
same,"Imax, maximum systemic plasma concentration of the inhibitor",[3],11.2 µM
same,"Fa, fraction of the inhibitor dose absorbed (maximum oral bioavailability)",[3],0.9
same,Ki,OATP1B1 [4],9520 nM
COC(=O)N[C@H](C(=O)N[C@@H](Cc1ccccc1)[C@@H](O)CN(Cc1ccc(-c2ccccn2)cc1)NC(=O)[C@@H](NC(=O)OC)C(C)(C)C)C(C)(C)C [Atazanavir],R-value B,OATP1B1 [2],2.38
same,R-value C,OATP1B1 [2],3.63
same,R-value D,OATP1B1 [2],4.68
same,R-value F,OATP1B1 [2],3.43
same,R-value G,OATP1B1 [2],5.64
same,R-value H,OATP1B1 [2],7.49
same,R-value E,OATP1B1 [2]; Eq. 3 (Ki),2.87
same,Average (mean) R-value,OATP1B1 [2],4.02
same,"Imax, maximum systemic plasma concentration of the inhibitor",[3],4.47 µM
same,"Fa, fraction of the inhibitor dose absorbed (maximum oral bioavailability)",[3],0.68
same,IC50,OATP1B1 [4],1610 nM
same,Ki,OATP1B1 [4],910 nM
CCOc1nc2cccc(C(=O)O)c2n1Cc1ccc(-c2ccccc2-c2nnn[nH]2)cc1 [Candesartan],Classification as OATP1B1 inhibitor (more than 50% inhibition of E17βG uptake),OATP1B1 [1],inhibitors
CC/C(=C(/CC)c1ccc(O)cc1)c1ccc(O)cc1 [Diethylstilbestrol],Classification as OATP1B1 inhibitor (more than 50% inhibition of E17βG uptake),OATP1B1 [1],inhibitors
C[C@]12CC[C@@H]3c4ccc(O)cc4CC[C@H]3[C@@H]1CC[C@@H]2O[C@@H]1O[C@H](C(=O)O)[C@@H](O)[C@H](O)[C@H]1O [Estradiol-17-β-glucuronide],Vmax of OATP1B1-mediated uptake,"OATP1B1 [5]; E17βG 1–200 μM, 96-well plates, HEK293-OATP1B1",1.37 (± 0.12) pmol/min/mg protein
same,Uptake in OATP1B1 cells relative to mock-transfected cells,OATP1B1 [5]; at 5 min (E17βG) and 2 min (atorvastatin),at least 8 times
CC(C)OC(=O)C(C)(C)Oc1ccc(C(=O)c2ccc(Cl)cc2)cc1 [Fenofibrate],"Fa, fraction of the inhibitor dose absorbed (maximum oral bioavailability)",[3],0.81
same,Inhibition of atorvastatin uptake (in words),"OATP1B1 [4]; investigated concentration interval 0.1–100 μM, 1 μM atorvastatin",did not inhibit atorvastatin uptake
Cc1ccc(C)c(OCCCC(C)(C)C(=O)O)c1 [Gemfibrozil],Fold AUC change Atorvastatin,[6],1.2 fold
same,"Fu, fraction of the inhibitor that is unbound",[7],0.05
same,R-value B,OATP1B1 [2]; [9],1.05
same,R-value D,"OATP1B1 [2]; Eq. 2 (IC50), ka = 0.1, Fa = 1",1.08
same,R-value C,OATP1B1 [2]; [10],1.08
same,R-value F,"OATP1B1 [2]; Eq. 3 (Ki), ka = 0.03, Fa = 1",1.11
same,R-value E,OATP1B1 [2]; Eq. 3 (Ki),1.11
same,R-value H,OATP1B1 [2]; [11],1.19
same,R-value G,OATP1B1 [2]; [12],1.19
same,Range of the eight R-values A–H,OATP1B1 [2],1.05–1.19
same,Average (mean) R-value,OATP1B1 [2],1.11
same,"Imax, maximum systemic plasma concentration of the inhibitor",[3],99.9 µM
same,"Fa, fraction of the inhibitor dose absorbed (maximum oral bioavailability)",[3],0.98
same,IC50,OATP1B1 [4],156000 nM
same,Ki,OATP1B1 [4],68100 nM
C[C@H](CCC(=O)NCC(=O)O)[C@H]1CC[C@H]2[C@@H]3[C@H](O)C[C@@H]4C[C@H](O)CC[C@]4(C)[C@H]3CC[C@]12C [Glycochenodeoxycholate],Classification as OATP1B1 inhibitor (more than 50% inhibition of E17βG uptake),OATP1B1 [1],inhibitors
C[C@H](CCC(=O)NCC(=O)O)[C@H]1CC[C@H]2[C@@H]3CC[C@@H]4C[C@H](O)CC[C@]4(C)[C@H]3C[C@H](O)[C@]12C [Glycodeoxycholate],Classification as OATP1B1 inhibitor (more than 50% inhibition of E17βG uptake),OATP1B1 [1],inhibitors
COc1ccc2c(c1)c(CC(=O)O)c(C)n2C(=O)c1ccc(Cl)cc1 [Indomethacin],Classification as OATP1B1 inhibitor (more than 50% inhibition of E17βG uptake),OATP1B1 [1],inhibitors
N[C@@H](Cc1cc(I)c(Oc2cc(I)c(O)c(I)c2)c(I)c1)C(=O)O [Levothyroxin],Classification as OATP1B1 inhibitor (more than 50% inhibition of E17βG uptake),OATP1B1 [1],not identified as inhibitors
same,"inhibition at 5 min, 75 µM","OATP1B1 [1]; human, pH 7.4, Inhibition of E17βG uptake, 75 μM test compound (data not shown)",> 50%
same,"inhibition at 5 min, 100 µM","OATP1B1 [1]; human, pH 7.4, Inhibition of E17βG uptake, 100 μM test compound (data not shown)",> 50%
Cc1cccc(C)c1OCC(=O)N[C@@H](Cc1ccccc1)[C@@H](O)C[C@H](Cc1ccccc1)NC(=O)[C@H](C(C)C)N1CCCNC1=O [Lopinavir],R-value B,OATP1B1 [2],1.76
same,R-value C,OATP1B1 [2],2.56
same,R-value D,OATP1B1 [2],2.56
same,R-value F,OATP1B1 [2],2.74
same,R-value G,OATP1B1 [2],4.58
same,R-value H,OATP1B1 [2],4.58
same,R-value E,OATP1B1 [2]; Eq. 3 (Ki),2.74
same,Range of the eight R-values A–H,OATP1B1 [2],1.76–4.58
same,Average (mean) R-value,OATP1B1 [2],2.91
same,IC50,OATP1B1 [4],740 nM
same,Ki,OATP1B1 [4],320 nM
same,R-value B calculated in the literature,OATP1B1 [8],9.2
